{
  "source": "DBAASP",
  "assay_in_all_cases": "≥ marks a high value that may be exact or a test limit, other limits are often not marked, values filed in µg/mL are converted to µM",
  "key": {"[1]": {"tested_on": "Acinetobacter baumannii ATCC 9955"}, "[2]": {"tested_on": "Acinetobacter baumannii ATCC BAA-1794"}, "[3]": {"tested_on": "Acinetobacter baumannii"}, "[4]": {"tested_on": "Candida albicans ATCC 10231"}, "[5]": {"tested_on": "Candida albicans"}, "[6]": {"tested_on": "Enterococcus faecalis ATCC 22192"}, "[7]": {"tested_on": "Enterococcus faecalis ATCC 51299"}, "[8]": {"tested_on": "Escherichia coli ATCC 25922"}, "[9]": {"tested_on": "Escherichia coli ATCC 4157"}, "[10]": {"tested_on": "Escherichia coli ATCC 51659"}, "[11]": {"tested_on": "Escherichia coli"}, "[12]": {"tested_on": "Klebsiella pneumoniae ATCC 13883"}, "[13]": {"tested_on": "Klebsiella pneumoniae ATCC 33495"}, "[14]": {"tested_on": "Klebsiella pneumoniae ATCC BAA-1705"}, "[15]": {"tested_on": "Klebsiella pneumoniae"}, "[16]": {"tested_on": "Pseudomonas aeruginosa ATCC 27853"}, "[17]": {"tested_on": "Pseudomonas aeruginosa ATCC 9027"}, "[18]": {"tested_on": "Pseudomonas aeruginosa ATCC BAA-2110"}, "[19]": {"tested_on": "Pseudomonas aeruginosa"}, "[20]": {"tested_on": "Staphylococcus aureus ATCC 25923"}, "[21]": {"tested_on": "Staphylococcus aureus ATCC 29213"}, "[22]": {"tested_on": "Staphylococcus aureus ATCC 33592"}, "[23]": {"tested_on": "Staphylococcus aureus"}, "[24]": {"tested_on": "Staphylococcus epidermidis"}, "[25]": {"tested_on": "Mycobacterium tuberculosis CAS3"}, "[26]": {"tested_on": "Mycobacterium tuberculosis FYX"}, "[27]": {"tested_on": "Mycobacterium tuberculosis WXY"}, "[28]": {"tested_on": "Escherichia coli ATCC 11219"}, "[29]": {"tested_on": "Klebsiella pneumoniae ATCC 10031"}, "[30]": {"tested_on": "Pseudomonas aeruginosa ATCC 13388"}, "[31]": {"tested_on": "Salmonella enterica subsp. enterica serovar Typhimurium ATCC 14028"}, "[32]": {"tested_on": "Staphylococcus aureus ATCC 6538"}, "[33]": {"tested_on": "Aerococcus viridans"}, "[34]": {"tested_on": "Alternaria brassicicola"}, "[35]": {"tested_on": "Bacillus megaterium"}, "[36]": {"tested_on": "Botrytis cinerea"}, "[37]": {"tested_on": "Escherichia coli D22"}, "[38]": {"tested_on": "Escherichia coli D31"}, "[39]": {"tested_on": "Fusarium culmorum"}, "[40]": {"tested_on": "Micrococcus luteus"}, "[41]": {"tested_on": "Neurospora crassa"}, "[42]": {"tested_on": "Streptococcus mutans UA159"}, "[43]": {"tested_on": "Streptococcus sanguinis ATCC 10556"}, "[44]": {"tested_on": "Streptococcus sobrinus ATCC 6715"}, "[45]": {"tested_on": "Acinetobacter baumannii Ab41"}, "[46]": {"tested_on": "Acinetobacter baumannii AbR-215"}, "[47]": {"tested_on": "Escherichia coli ATCC 8739"}, "[48]": {"tested_on": "Saccharomyces cerevisiae S288C"}},
  "data": [
    {"smiles": "CC[C@H](C)[C@H](NC(=O)[C@H](CCCCN)NC(=O)[C@H](CCCN=C(N)N)NC(=O)[C@H](CCCN=C(N)N)NC(=O)[C@H](CC(C)C)NC(=O)[C@H](CCCCN)NC(=O)[C@H](CCCCN)NC(=O)[C@H](Cc1ccccc1)NC(=O)[C@H](CC(C)C)NC(=O)CN)C(=O)N[C@@H](CCCCN)C(=O)N[C@@H](CCCCN)C(=O)NCC(=O)N[C@@H](Cc1ccccc1)C(=O)N[C@@H](CCCCN)C(=O)N[C@@H](CCCCN)C(=O)N[C@H](C(=O)N[C@@H](Cc1ccccc1)C(=O)N[C@@H](CCCCN)C(=O)N[C@@H](CCCN=C(N)N)C(=O)N[C@@H](CC(C)C)C(=O)O)[C@@H](C)CC", "note": "[GLFKKLRRKIKKGFKKIFKRL]", "values": [
      {"measurement": "MIC", "setting": "[1]", "value": 15.9, "unit": "µM"},
      {"measurement": "MIC", "setting": "[2]", "value": 3.8, "unit": "µM"},
      {"measurement": "MIC", "setting": "[3]", "value": 12.2, "unit": "µM"},
      {"measurement": "MIC", "setting": "[4]", "value": "> 48.6", "unit": "µM"},
      {"measurement": "MIC", "setting": "[5]", "value": "> 48.6", "unit": "µM"},
      {"measurement": "MIC", "setting": "[6]", "value": 15.9, "unit": "µM"},
      {"measurement": "MIC", "setting": "[7]", "value": 15.9, "unit": "µM"},
      {"measurement": "MIC", "setting": "[8]", "value": 12.2, "unit": "µM"},
      {"measurement": "MIC", "setting": "[9]", "value": 7.97, "unit": "µM"},
      {"measurement": "MIC", "setting": "[10]", "value": "≥ 53.2", "unit": "µM"},
      {"measurement": "MIC", "setting": "[11]", "value": 34.4, "unit": "µM"},
      {"measurement": "MIC", "setting": "[12]", "value": 24.3, "unit": "µM"},
      {"measurement": "MIC", "setting": "[13]", "value": 1.97, "unit": "µM"},
      {"measurement": "MIC", "setting": "[14]", "value": 10.6, "unit": "µM"},
      {"measurement": "MIC", "setting": "[15]", "value": 48.6, "unit": "µM"},
      {"measurement": "MIC", "setting": "[16]", "value": 24.3, "unit": "µM"},
      {"measurement": "MIC", "setting": "[17]", "value": 3.8, "unit": "µM"},
      {"measurement": "MIC", "setting": "[18]", "value": 15.9, "unit": "µM"},
      {"measurement": "MIC", "setting": "[19]", "value": 8.59, "unit": "µM"},
      {"measurement": "MIC", "setting": "[20]", "value": 10.6, "unit": "µM"},
      {"measurement": "MIC", "setting": "[21]", "value": 48.6, "unit": "µM"},
      {"measurement": "MIC", "setting": "[22]", "value": 10.6, "unit": "µM"},
      {"measurement": "MIC", "setting": "[23]", "value": 24.3, "unit": "µM"},
      {"measurement": "MIC", "setting": "[24]", "value": 24.3, "unit": "µM"}
    ]},
    {"smiles": "CSCC[C@H](NC(=O)[C@H](CCCCN)NC(=O)[C@H](CCCCN)NC(=O)[C@H](CC(C)C)NC(=O)[C@H](CC(C)C)NC(=O)[C@H](CCCCN)NC(=O)[C@H](CCCCN)NC(=O)[C@H](CC(C)C)NC(=O)[C@H](CC(C)C)NC(=O)[C@@H](N)CCSC)C(=O)O", "note": "[MLLKKLLKKM]", "values": [
      {"measurement": "MIC", "setting": "[25]", "value": "≥ 120", "unit": "µM"},
      {"measurement": "MIC", "setting": "[26]", "value": "≥ 60.2", "unit": "µM"},
      {"measurement": "MIC", "setting": "[27]", "value": "≥ 60.2", "unit": "µM"}
    ]},
    {"smiles": "CC[C@H](C)[C@H](NC(=O)[C@H](CC(=O)O)NC(=O)[C@H](Cc1cnc[nH]1)NC(=O)[C@H](C)NC(=O)CN)C(=O)N[C@@H](CC(C)C)C(=O)N[C@@H](CCCCN)C(=O)N[C@@H](Cc1ccc(O)cc1)C(=O)NCC(=O)N[C@@H](CCCCN)C(=O)N1CCC[C@H]1C(=O)N[C@@H](CO)C(N)=O", "note": "[GAHDILKYGKPS]", "values": [
      {"measurement": "MIC", "setting": "[28]", "value": "≥ 50", "unit": "µM"},
      {"measurement": "MIC", "setting": "[29]", "value": "≥ 50", "unit": "µM"},
      {"measurement": "MIC", "setting": "[30]", "value": "≥ 50", "unit": "µM"},
      {"measurement": "MIC", "setting": "[31]", "value": "> 50", "unit": "µM"},
      {"measurement": "MIC", "setting": "[32]", "value": 30, "unit": "µM"}
    ]},
    {"smiles": "CC[C@H](C)[C@H](N)C(=O)N[C@H](C(=O)N[C@@H](Cc1ccc(O)cc1)C(=O)N[C@H]1CSSC[C@@H](C(=O)N[C@@H](CCC(N)=O)C(=O)N[C@@H](CCCN=C(N)N)C(=O)N[C@@H](CCSC)C(=O)O)NC(=O)[C@H](CCCCN)NC(=O)CNC(=O)[C@H]([C@@H](C)O)NC(=O)[C@H](CCCN=C(N)N)NC(=O)[C@H](CCCN=C(N)N)NC(=O)[C@H](CC(N)=O)NC1=O)[C@@H](C)CC", "note": "[IIYCNRRTGKCQRM]", "values": [
      {"measurement": "MIC", "setting": "[33]", "value": 1.73, "unit": "µM"},
      {"measurement": "MIC", "setting": "[34]", "value": 7.07, "unit": "µM"},
      {"measurement": "MIC", "setting": "[35]", "value": 14.1, "unit": "µM"},
      {"measurement": "MIC", "setting": "[36]", "value": 14.1, "unit": "µM"},
      {"measurement": "MIC", "setting": "[37]", "value": 28.3, "unit": "µM"},
      {"measurement": "MIC", "setting": "[38]", "value": 28.3, "unit": "µM"},
      {"measurement": "MIC", "setting": "[39]", "value": 28.3, "unit": "µM"},
      {"measurement": "MIC", "setting": "[15]", "value": 28.3, "unit": "µM"},
      {"measurement": "MIC", "setting": "[40]", "value": 7.07, "unit": "µM"},
      {"measurement": "MIC", "setting": "[41]", "value": 28.3, "unit": "µM"}
    ]},
    {"smiles": "NCCCC[C@H](NC(=O)CNC(=O)[C@H](CCCCN)NC(=O)[C@H](CCCCN)NC(=O)[C@H](Cc1ccccc1)NC(=O)[C@H](Cc1ccccc1)NC(=O)[C@H](CCCCN)NC(=O)[C@H](CCCCN)NC(=O)[C@H](Cc1ccccc1)NC(=O)[C@H](Cc1ccccc1)NC(=O)[C@H](CCCCN)NC(=O)CNC(=O)[C@@H](N)Cc1c[nH]c2ccccc12)C(=O)O", "note": "[WGKFFKKFFKKGK]", "values": [
      {"measurement": "MIC", "setting": "[42]", "value": "≥ 38.2", "unit": "µM"},
      {"measurement": "MIC", "setting": "[43]", "value": "≥ 153", "unit": "µM"},
      {"measurement": "MIC", "setting": "[44]", "value": "≥ 38.2", "unit": "µM"}
    ]},
    {"smiles": "CC(C)C[C@H](NC(=O)[C@H](CCCCN)NC(=O)[C@H](C)NC(=O)[C@H](C)NC(=O)[C@H](C)NC(=O)[C@H](C)NC(=O)[C@H](C)NC(=O)[C@H](C)NC(=O)[C@H](CCCCN)NC(=O)[C@H](CC(C)C)NC(=O)[C@H](C)NC(=O)[C@H](C)NC(=O)[C@H](CCCCN)NC(=O)[C@H](C)NC(=O)[C@H](C)NC(=O)[C@H](CCCCN)NC(=O)[C@H](C)NC(=O)[C@H](C)NC(=O)[C@H](CC(C)C)NC(=O)[C@H](CCCCN)NC(=O)[C@H](C)NC(=O)[C@H](C)NC(=O)[C@H](C)NC(=O)[C@H](C)NC(=O)[C@H](C)NC(=O)[C@H](C)NC(=O)[C@H](CCCCN)NC(=O)[C@@H](N)CC(C)C)C(=O)O", "note": "[LKAAAAAAKLAAKAAKAALKAAAAAAKL]", "values": [
      {"measurement": "MIC", "setting": "[45]", "value": 3.2, "unit": "µM"},
      {"measurement": "MIC", "setting": "[46]", "value": 3.2, "unit": "µM"},
      {"measurement": "MIC", "setting": "[47]", "value": 3.2, "unit": "µM"},
      {"measurement": "MIC", "setting": "[23]", "value": "≥ 80.6", "unit": "µM"}
    ]},
    {"smiles": "CC(C)C[C@H](NC(=O)[C@H](CC(N)=O)NC(=O)[C@H](Cc1c[nH]c2ccccc12)NC(=O)[C@@H](NC(=O)CNC(=O)CNC(=O)[C@H](CCCN=C(N)N)NC(=O)[C@H](CC(=O)O)NC(=O)[C@H](CC(C)C)NC(=O)[C@H](CCCN=C(N)N)NC(=O)[C@@H](N)CCCN=C(N)N)C(C)C)C(=O)N[C@@H](CC(N)=O)C(=O)N[C@H](C(=O)N[C@@H](CC(N)=O)C(=O)N1CCC[C@H]1C(=O)NCC(=O)N[C@H](C(=O)N[C@H](C(=O)NCC(=O)N[C@@H](C)C(=O)N[C@@H](CCCN=C(N)N)C(=O)N[C@H](C(=O)N[C@@H](Cc1c[nH]c2ccccc12)C(=O)N[C@@H](C)C(=O)N[C@@H](CCCN=C(N)N)C(=O)N[C@H](C(=O)N[C@@H](CCCCN)C(N)=O)[C@@H](C)O)C(C)C)[C@@H](C)O)[C@@H](C)O)C(C)C", "note": "[RRLDRGGVWNLNVNPGTTGARVWARTK]", "values": [
      {"measurement": "MIC", "setting": "[48]", "value": "≥ 40", "unit": "µM"}
    ]}
  ]
}
